The values below come from ChEMBL document CHEMBL1128861 (Bioorg Med Chem Lett, 1995).

Test [1] addresses Adrenergic receptor alpha-1 (Rattus norvegicus) (UniProt P15823+P23944+P43140). Put plainly: Affinity for Alpha-1 adrenergic receptor of rat aorta. It is filed as tissue-based.
Test [2] has as its target Histamine H1 receptor (Cavia porcellus) (UniProt P31389). Put plainly: Affinity for H1 histamine receptor of guinea pig ileum. The test is classed as tissue-based.
The target of test [3] is 5-hydroxytryptamine receptor 2A (Rattus norvegicus) (UniProt P14842). Put plainly: Affinity for 5-HT2A receptor of rat tail artery. It is filed as tissue-based.
Test [4] deals with T1, 5-hydroxytryptamine receptor 2A (Rattus norvegicus, UniProt P14842). Description: Antagonism of 5-HT2A receptor of rat tail artery. Particulars: read-out: pA2 (converted). It is filed as functional, tissue-based.
In test [5] the target is T1, 5-hydroxytryptamine receptor 2A. Put plainly: Binding affinity towards 5-HT2A receptor of rat tail artery. The test is classed as tissue-based.
Test [6] addresses Serotonin 3 (5-HT3) receptor (Homo sapiens) (UniProt P46098+A5X5Y0+O95264+Q70Z44+Q8WXA8). Put plainly: Binding affinity against 5-hydroxytryptamine 3 receptor of guinea pig ileum. Particulars: Cavia porcellus, target entry is the homologue from another species. The test is classed as tissue-based.
For test [7], the target named is Muscarinic acetylcholine receptor M3 (Cavia porcellus) (UniProt Q8VH26). Put plainly: Affinity for ileal muscarinic M3 receptor of guinea pig ileum. The test is classed as tissue-based.
Test [8] has the same target. Put plainly: Binding affinity against ileal muscarinic M3 receptor of guinea pig ileum. The test is classed as tissue-based.
The target of test [9] is 5-hydroxytryptamine receptor 2A (Rattus norvegicus) (UniProt P14842). Description: Binding affinity against 5-HT2A receptor of rat tail artery. It is filed as tissue-based.
Test [10] concerns the target T2, Adrenergic receptor alpha-1 (Rattus norvegicus, UniProt P15823+P23944+P43140).
T2 sequence (P15823 whole entry): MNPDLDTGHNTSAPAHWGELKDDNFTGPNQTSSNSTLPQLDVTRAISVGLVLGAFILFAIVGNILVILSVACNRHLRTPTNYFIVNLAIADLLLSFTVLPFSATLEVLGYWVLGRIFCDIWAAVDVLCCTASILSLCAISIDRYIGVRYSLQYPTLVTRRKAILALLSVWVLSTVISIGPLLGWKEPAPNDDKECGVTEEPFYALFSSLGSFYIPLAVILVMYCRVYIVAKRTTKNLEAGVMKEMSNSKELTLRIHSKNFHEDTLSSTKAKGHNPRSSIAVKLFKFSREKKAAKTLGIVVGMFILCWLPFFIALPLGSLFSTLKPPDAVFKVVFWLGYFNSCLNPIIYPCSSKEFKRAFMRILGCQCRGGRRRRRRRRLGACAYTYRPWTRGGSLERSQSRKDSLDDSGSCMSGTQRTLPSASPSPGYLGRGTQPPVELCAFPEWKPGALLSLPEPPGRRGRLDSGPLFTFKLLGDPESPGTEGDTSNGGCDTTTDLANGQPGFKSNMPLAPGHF
T2 sequence (P23944 whole entry): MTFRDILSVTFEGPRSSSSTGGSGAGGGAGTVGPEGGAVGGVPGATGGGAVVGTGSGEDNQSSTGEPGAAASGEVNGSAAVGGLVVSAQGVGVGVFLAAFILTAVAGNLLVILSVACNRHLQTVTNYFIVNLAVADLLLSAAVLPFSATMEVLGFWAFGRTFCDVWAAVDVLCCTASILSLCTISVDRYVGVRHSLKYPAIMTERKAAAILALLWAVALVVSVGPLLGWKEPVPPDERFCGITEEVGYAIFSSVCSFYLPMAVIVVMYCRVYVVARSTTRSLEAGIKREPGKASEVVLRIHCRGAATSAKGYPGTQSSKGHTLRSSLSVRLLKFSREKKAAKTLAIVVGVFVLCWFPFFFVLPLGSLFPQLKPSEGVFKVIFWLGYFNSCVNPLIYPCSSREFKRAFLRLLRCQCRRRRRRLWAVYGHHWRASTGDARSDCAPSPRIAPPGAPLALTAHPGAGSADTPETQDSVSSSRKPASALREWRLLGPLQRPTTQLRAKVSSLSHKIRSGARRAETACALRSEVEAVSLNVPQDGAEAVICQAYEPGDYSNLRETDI
T2 sequence (P43140 whole entry): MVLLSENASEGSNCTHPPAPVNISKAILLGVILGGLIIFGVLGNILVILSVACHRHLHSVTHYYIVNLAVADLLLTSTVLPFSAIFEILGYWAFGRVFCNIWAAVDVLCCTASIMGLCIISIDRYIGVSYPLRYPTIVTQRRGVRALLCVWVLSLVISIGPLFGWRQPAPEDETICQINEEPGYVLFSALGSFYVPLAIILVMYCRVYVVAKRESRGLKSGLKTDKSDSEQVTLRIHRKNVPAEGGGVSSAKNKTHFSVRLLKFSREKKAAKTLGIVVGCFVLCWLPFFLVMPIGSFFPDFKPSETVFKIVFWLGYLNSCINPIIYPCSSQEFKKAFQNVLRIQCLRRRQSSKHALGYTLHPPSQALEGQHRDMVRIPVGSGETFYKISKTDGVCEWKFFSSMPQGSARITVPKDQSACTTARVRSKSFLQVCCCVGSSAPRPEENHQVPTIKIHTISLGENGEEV
Description: Antagonism against Alpha-1 adrenergic receptor of rat aorta. The test is classed as functional, tissue-based.

Another test has as its target Histamine H1 receptor (Cavia porcellus, UniProt P31389). Put plainly: Antagonism against H1 histamine receptor of guinea pig ileum. Particulars: read-out: pA2 (converted). The test is classed as functional, tissue-based.

SMILES strings stand for the structures. A value given as a limit tells only on which side of the number the result lay.

Sequence of Histamine H1 receptor (Cavia porcellus) (P31389 whole entry): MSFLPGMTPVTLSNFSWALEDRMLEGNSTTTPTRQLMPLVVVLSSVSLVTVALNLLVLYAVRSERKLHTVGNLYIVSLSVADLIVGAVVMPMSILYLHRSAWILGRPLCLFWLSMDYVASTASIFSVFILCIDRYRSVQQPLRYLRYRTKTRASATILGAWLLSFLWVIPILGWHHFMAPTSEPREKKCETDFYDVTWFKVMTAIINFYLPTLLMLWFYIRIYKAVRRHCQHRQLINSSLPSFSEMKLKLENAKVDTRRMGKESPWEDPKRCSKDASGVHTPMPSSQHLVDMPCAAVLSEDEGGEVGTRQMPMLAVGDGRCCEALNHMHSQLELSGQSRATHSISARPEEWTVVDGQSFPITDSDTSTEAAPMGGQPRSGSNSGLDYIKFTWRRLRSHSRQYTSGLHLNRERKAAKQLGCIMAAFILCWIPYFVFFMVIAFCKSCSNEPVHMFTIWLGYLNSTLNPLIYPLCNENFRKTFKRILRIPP
Sequence of 5-hydroxytryptamine receptor 2A (Rattus norvegicus) (P14842 whole entry): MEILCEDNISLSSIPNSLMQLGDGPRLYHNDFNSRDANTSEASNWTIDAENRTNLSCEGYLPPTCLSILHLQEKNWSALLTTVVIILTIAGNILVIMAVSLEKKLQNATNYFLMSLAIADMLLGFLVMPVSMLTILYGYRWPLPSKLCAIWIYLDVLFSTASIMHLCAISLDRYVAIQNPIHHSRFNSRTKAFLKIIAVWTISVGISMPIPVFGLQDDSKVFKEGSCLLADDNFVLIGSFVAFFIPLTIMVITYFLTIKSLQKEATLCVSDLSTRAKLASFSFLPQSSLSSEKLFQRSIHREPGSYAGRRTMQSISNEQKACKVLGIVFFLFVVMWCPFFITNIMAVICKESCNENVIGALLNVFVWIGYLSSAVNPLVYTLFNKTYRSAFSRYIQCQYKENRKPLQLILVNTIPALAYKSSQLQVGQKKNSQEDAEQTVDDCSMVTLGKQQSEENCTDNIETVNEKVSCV
T1 sequence (P14842 whole entry): as above
Sequence of Muscarinic acetylcholine receptor M3 (Cavia porcellus) (Q8VH26 1-587): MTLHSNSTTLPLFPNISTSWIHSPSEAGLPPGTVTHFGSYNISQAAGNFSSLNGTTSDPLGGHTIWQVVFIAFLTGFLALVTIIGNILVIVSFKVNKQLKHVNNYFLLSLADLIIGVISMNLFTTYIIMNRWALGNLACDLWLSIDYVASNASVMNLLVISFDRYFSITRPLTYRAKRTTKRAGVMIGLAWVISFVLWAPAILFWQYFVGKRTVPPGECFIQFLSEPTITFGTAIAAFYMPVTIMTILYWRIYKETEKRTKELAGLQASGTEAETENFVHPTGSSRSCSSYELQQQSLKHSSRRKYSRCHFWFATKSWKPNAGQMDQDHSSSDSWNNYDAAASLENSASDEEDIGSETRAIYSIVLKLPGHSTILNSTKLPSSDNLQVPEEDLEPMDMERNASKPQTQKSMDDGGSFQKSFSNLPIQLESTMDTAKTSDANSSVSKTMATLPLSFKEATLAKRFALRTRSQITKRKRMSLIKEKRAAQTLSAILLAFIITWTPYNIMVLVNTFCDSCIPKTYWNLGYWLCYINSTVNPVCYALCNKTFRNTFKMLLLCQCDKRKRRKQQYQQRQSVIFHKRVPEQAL
Sequence of Histamine H1 receptor (P31389 whole entry): as the sequence (P31389 whole entry) above

For `COc1ccc2[nH]cc(C3=CCN(CC4CCc5c(c6ccccc6n5C)C4=O)CC3)c2c1` (configuration not stated), the pKB stood at 6.59 in test [1], 6.31 in test [2] and 6.09 in test [3].
Consider `O=C(c1ccc(F)cc1)C1CCNCC1`, for which, in [4], the Kb is 525 nM. In [5], this compound had a Ki of 398 nM.
Regarding `Cn1c2c(c3ccccc31)C(=O)C(CNc1ncc[nH]1)CC2` (configuration not stated), in test [3], the pKB turned out to be 6.73.
On to `Cn1c2c(c3ccccc31)C(=O)C(CN1CCC(c3ccccc3)CC1)CC2` (configuration not stated), for which the pKB in test [6] was < 5.2; in test [1], 7.58; in test [2] it was 6.4; in [7], 4.97; in test [3], 8.43.
As for `Cn1c2c(c3ccccc31)C(=O)C(CN1CCC(C(=O)c3ccc(F)cc3)CC1)CC2` (single isomer, unassigned; (+)) [listing 1 of 2 here], the results for the pKB in [1] and in [2] were 7.28 and 6.82, respectively.
With `Cn1c2c(c3ccccc31)C(=O)C(CN1CCN(c3ccc(F)cc3)CC1)CC2` (configuration not stated), the pKB is < 5.5 in [6], 7.8 in [1], 6.74 in test [2] and 5.55 in test [7]. Also, in test [4], the Kb is 2.51 nM.
As for `Cn1c2c(c3ccccc31)C(=O)C(CN1CC=C(c3c[nH]c4ccc(F)cc34)CC1)CC2` (configuration not stated), the figures for the pKB in test [1], in test [2] and in [3] were 6.49, 6.6 and 7.22, respectively.
In the case of `Cn1c2c(c3ccccc31)C(=O)C(CN1CC=C(c3c[nH]c4ccccc34)CC1)CC2` (configuration not stated), the pKB is 7.58 in test [1] and 6.62 in test [2]. Moreover, in test [4], the Kb was 6.31 nM.
In the case of `Cc1nccn1CC1CCc2c(c3ccccc3n2C)C1=O` (configuration not stated), the negative logarithm of the KB (pKB) is 5.29 in [1], 4.37 in test [2], 4.72 in test [8] and 4.66 in test [9].
With `Cn1c2c(c3ccccc31)C(=O)C(CN1CCC(C(=O)c3ccc(F)cc3)CC1)CC2` (stereo in doubt; (-)-13) [listing 1 of 2 here], in test [4], the Kb is 0.437 nM.
`Cn1c2c(c3ccccc31)C(=O)C(CN1CCC(C(=O)c3ccccc3)CC1)CC2` (configuration not stated): the pKB was < 5.5 in [6], 7.36 in test [1], 6.53 in test [2] and 5.01 in test [7]. The Kb in test [4] was 4.57 nM.
For `Cn1c2c(c3ccccc31)C(=O)C(CN1CCC(C(=O)c3ccc(F)cc3)CC1)CC2` (single isomer, unassigned; (+)) [listing 2 of 2 here], the Kb in test [4] is 64.6 nM.
Consider `Cn1c2c(c3ccccc31)C(=O)C(CN1CCC(C(=O)c3ccc(F)cc3)CC1)CC2` (racemic) [listing 1 of 2 here], for which the pKB was < 5.7 in [6], 7.96 in test [1], 6.92 in test [2] and 5.19 in test [7].
For `CN(CCn1c(=O)[nH]c2ccccc2c1=O)CC1CCc2c(c3ccccc3n2C)C1=O` (configuration not stated), the pKB is < 5.7 in [6]; 6.45 in [1]; 5.9 in test [2]; 4.68 in test [7]; 5.5 in test [3].
For `O=C(c1ccc(F)cc1)C1CCN(CCn2c(=O)[nH]c3ccccc3c2=O)CC1` [KETANSERIN], the pA2 in [10] was found to be 8.09. The Kb at Histamine H1 receptor is 1.41 nM. The compound further showed a negative-log KB (pKB) in [7] of 4.18.
As for `Cn1c2c(c3ccccc31)C(=O)C(CN1CCN(c3ccccc3F)CC1)CC2` (configuration not stated), the pKB in test [6] was < 5.2; in [2], 6.19; in test [7] it was 4.72; in test [3] it was 7.8. For the same compound, the pA2 in test [10] amounted to 8.75.
Regarding `Cn1c2c(c3ccccc31)C(=O)C(CNCCc1c[nH]cn1)CC2` (configuration not stated), the pKB in test [3] was determined as 6.75.
Still for that read-out and setting: then `Cn1c2c(c3ccccc31)C(=O)C(CNCc1ncc[nH]1)CC2` (configuration not stated), with 6.59.
For the compound `Cn1c2c(c3ccccc31)C(=O)C(CN1CCC(C(=O)c3ccc(F)cc3)CC1)CC2` (racemic) [listing 2 of 2 here], in test [4], the Kb is 0.617 nM.
The compound `Cn1c2c(c3ccccc31)C(=O)C(CN1CCC(=C(c3ccc(F)cc3)c3ccc(F)cc3)CC1)CC2` (configuration not stated) yielded a pD2 in test [6] of 6.08. Moreover, the pKB in test [1] amounted to 5.81; in [2] it was 7.41; in test [7], 5.7; in [3] it was 6.3.
Regarding `Cn1c2c(c3ccccc31)C(=O)C(CN1CCCCC1)CC2` (configuration not stated), the pKB in [6] was < 5.3; in [1], 6.11; in test [2], 5.69; in test [7], 4.98; in [3], 5.98.
In the case of `Cn1c2c(c3ccccc31)C(=O)C(CN1CCC(C(=O)c3ccc(F)cc3)CC1)CC2` (stereo in doubt; (-)-13) [listing 2 of 2 here], the values for the pKB in [1] and in test [2] were 8.08 and 6.74, respectively.

What is called pKB is −log10 of the KB, conventionally taken in molar units. In general, Ki refers to a dissociation constant, usually derived from enzyme kinetics or from competition with a known ligand. Read a high Ki as a looser hold on the target. The pA2 is the negative logarithm of the molar antagonist concentration that doubles the agonist concentration needed for the same response. Low readings indicate a weaker antagonist, high ones a more potent antagonist.
